PubChem BioAssay AID200 (DTP/NCI, 2004)
“And” between values parts separate entries of the source, which are not always exact repeats. Equal values may be shown once. Inconclusive results and toxic doses are left out.

System: B6C3F1 mice, B16 melanoma ip, median survival T/C
Test: NCI In Vivo Anticancer Drug Screen. Data for tumor model B16 Melanoma (intraperitoneal) in B6C3F1 mice
Settings: endpoint: median survival time, higher = longer survival
Procedure: The antitumor activity of compounds was measured in mice bearing transplantable tumors. Survival or tumor size were measured and the results are expressed as the measurement made in the treated group (T) divided by the measurement made in the vehicle treated control group (C). The tumor model used in this assay is B16 Melanoma (intraperitoneal) in B6C3F1 mice

[1] = dose: 12.5 mg/kg/injection, schedule: Q01DX009 (ip), vehicle: saline
[2] = dose: 25.0 mg/kg/injection, schedule: Q01DX009 (ip), vehicle: saline
[3] = dose: 50.0 mg/kg/injection, schedule: Q01DX009 (ip), vehicle: saline
[4] = dose: 100.0 mg/kg/injection, schedule: Q01DX009 (ip), vehicle: saline
[5] = dose: 200.0 mg/kg/injection, schedule: Q01DX009 (ip), vehicle: saline
[6] = dose: 12.5 mg/kg/injection, schedule: Q01DX009 (ip), vehicle: saline with Tween-80
[7] = dose: 25.0 mg/kg/injection, schedule: Q01DX009 (ip), vehicle: saline with Tween-80
[8] = dose: 50.0 mg/kg/injection, schedule: Q01DX009 (ip), vehicle: saline with Tween-80

`COC(=O)C(N)Cc1ccc(O)c(O)c1` (configuration not stated) was tested, and the T/C [1] was 102 % of control, the T/C [2] was 88 % of control and 102 % of control and the T/C (dose: 25.0 mg/kg/injection, schedule: Q01DX012 (ip), vehicle: saline) was 95 % of control. The T/C (dose: 25.0 mg/kg/injection, schedule: Q01DX024 (ip), vehicle: saline) was 95 % of control, the T/C (dose: 25.0 mg/kg/injection, schedule: Q08HX120 (ip), vehicle: saline) was 112 % of control and the T/C [3] was 90 % of control and 100 % of control. For the same molecule, the T/C (dose: 50.0 mg/kg/injection, schedule: Q01DX012 (ip), vehicle: saline) was 94 % of control, the T/C (dose: 50.0 mg/kg/injection, schedule: Q01DX024 (ip), vehicle: saline) was 97 % of control and the T/C [4] was 94 % of control and 98 % of control and 106 % of control. The T/C (dose: 100.0 mg/kg/injection, schedule: Q01DX012 (ip), vehicle: saline) was 94 % of control and 101 % of control, the T/C (dose: 100.0 mg/kg/injection, schedule: Q01DX024 (ip), vehicle: saline) was 91 % of control and 99 % of control and the T/C (dose: 100.0 mg/kg/injection, schedule: Q08HX120 (ip), vehicle: saline) was 109 % of control. The T/C (dose: 100.0 mg/kg/injection, schedule: Q#A X040 (ip), vehicle: saline) was 91 % of control, the T/C [5] was 111 % of control and 103 % of control and 106 % of control and the T/C (dose: 200.0 mg/kg/injection, schedule: Q01DX012 (ip), vehicle: saline) was 96 % of control and 105 % of control. The T/C (dose: 200.0 mg/kg/injection, schedule: Q01DX024 (ip), vehicle: saline) was 97 % of control and 106 % of control, the T/C (dose: 200.0 mg/kg/injection, schedule: Q08HX120 (ip), vehicle: saline) was 110 % of control and the T/C (dose: 200.0 mg/kg/injection, schedule: Q#A X040 (ip), vehicle: saline) was 100 % of control. The T/C (dose: 400.0 mg/kg/injection, schedule: Q01DX009 (ip), vehicle: saline) was 117 % of control and 100 % of control and 105 % of control, the T/C (dose: 400.0 mg/kg/injection, schedule: Q01DX012 (ip), vehicle: saline) was 117 % of control and 102 % of control and the T/C (dose: 400.0 mg/kg/injection, schedule: Q01DX024 (ip), vehicle: saline) was 108 % of control and 104 % of control. For the same molecule, the T/C (dose: 400.0 mg/kg/injection, schedule: Q#A X040 (ip), vehicle: saline) was 95 % of control, the T/C (dose: 600.0 mg/kg/injection, schedule: Q#A X040 (ip), vehicle: saline) was 95 % of control and the T/C (dose: 800.0 mg/kg/injection, schedule: Q01DX009 (ip), vehicle: saline) was 117 % of control. For the same molecule, the T/C (dose: 800.0 mg/kg/injection, schedule: Q01DX012 (ip), vehicle: saline) was 116 % of control.
With `Nc1ccc(S(=O)(=O)Nc2cnc3c(Cl)cccc3n2)cc1` the T/C (dose: 50.0 mg/kg/injection, schedule: Q01DX009 (ip), vehicle: DMSO) was 97 % of control, the T/C (dose: 100.0 mg/kg/injection, schedule: Q01DX009 (ip), vehicle: DMSO) was 100 % of control and the T/C (dose: 200.0 mg/kg/injection, schedule: Q01DX009 (ip), vehicle: DMSO) was 116 % of control. For the same molecule, the T/C (dose: 400.0 mg/kg/injection, schedule: Q01DX009 (ip), vehicle: DMSO) was 105 % of control.
`COc1cc2cc(c1Cl)N1CC(O)C(C)(O)C(=O)NC(C)C(=O)OC(CC1=O)C1(C)OC1C(C)C1CC(O)(NC(=O)O1)C(OC)/C=C\C=C(\C)C2OC` (configuration not stated) was tested, and the T/C (dose: 2.0 micrograms/kg/injection, schedule: Q01DX009 (ip), vehicle: distilled water + alcohol) was 164 % of control and 165 % of control, the T/C (dose: 4.0 micrograms/kg/injection, schedule: Q01DX009 (ip), vehicle: distilled water + alcohol) was 170 % of control and 185 % of control and the T/C (dose: 8.0 micrograms/kg/injection, schedule: Q01DX009 (ip), vehicle: distilled water + alcohol) was 176 % of control and 195 % of control and 196 % of control. For the same molecule, the T/C (dose: 16.0 micrograms/kg/injection, schedule: Q01DX009 (ip), vehicle: distilled water + alcohol) was 183 % of control and 197 % of control and 212 % of control.
For `Nc1ccc(S(N)(=O)=O)cc1`, the T/C [6] was 94 % of control, the T/C [7] was 86 % of control and 99 % of control and the T/C [8] was 98 % of control and 100 % of control. The T/C (dose: 100.0 mg/kg/injection, schedule: Q01DX009 (ip), vehicle: saline with Tween-80) was 105 % of control and 108 % of control, the T/C (dose: 200.0 mg/kg/injection, schedule: Q01DX009 (ip), vehicle: saline with Tween-80) was 114 % of control and 101 % of control and the T/C (dose: 400.0 mg/kg/injection, schedule: Q01DX009 (ip), vehicle: saline with Tween-80) was 90 % of control and 99 % of control.
With `c1cnc2ncncc2n1` the T/C [1] was 110 % of control, the T/C [2] was 107 % of control and the T/C [3] was 97 % of control. For the same molecule, the T/C [4] was 91 % of control and the T/C [5] was 99 % of control.
For `C=C(C)[C@@H]1CCc2c(O)c(O)c(=O)cc(C)c2C1`, the T/C (dose: 3.12 mg/kg/injection, schedule: Q01DX009 (ip), vehicle: Klucel (hydroxypropylcellulose) (HPC)) was 100 % of control, the T/C (dose: 3.12 mg/kg/injection, schedule: Q01DX009 (ip), vehicle: saline with Tween-80) was 100 % of control and the T/C (dose: 6.25 mg/kg/injection, schedule: Q01DX009 (ip), vehicle: Klucel (hydroxypropylcellulose) (HPC)) was 99 % of control. The T/C (dose: 6.25 mg/kg/injection, schedule: Q01DX009 (ip), vehicle: saline with Tween-80) was 100 % of control, the T/C (dose: 12.5 mg/kg/injection, schedule: Q01DX009 (ip), vehicle: Klucel (hydroxypropylcellulose) (HPC)) was 104 % of control and the T/C [6] was 95 % of control. The T/C [1] was 100 % of control, the T/C (dose: 25.0 mg/kg/injection, schedule: Q01DX009 (ip), vehicle: Klucel (hydroxypropylcellulose) (HPC)) was 112 % of control and the T/C [7] was 102 % of control. For the same molecule, the T/C [2] was 115 % of control, the T/C (dose: 50.0 mg/kg/injection, schedule: Q01DX009 (ip), vehicle: Klucel (hydroxypropylcellulose) (HPC)) was 99 % of control and the T/C [8] was 110 % of control. For the same molecule, the T/C (dose: 100.0 mg/kg/injection, schedule: Q01DX009 (ip), vehicle: Klucel (hydroxypropylcellulose) (HPC)) was 102 % of control.
